Like-named read-outs stand apart in the source and are kept apart here.
Key:
[1] = target: one or more of HDAC-1, HDAC-2, HDAC-3, HDAC-4, HDAC-5, HDAC-6, HDAC-7, HDAC-8, HDAC-9, HDAC-10 and HDAC-11; assay: Inhibition of Histone Deacetylase Enzymatic Activity (Boc-Lys(Ac)-AMC substrate, Fluor-de-Lys developer); assay type: biochemical; conditions: read-out: HDAC Inhibition (IC50 μM) HDAC Enzyme
Protocol: The following protocol is used to assay the compounds of the disclosure.
The mixture is pre-incubated for 5 minutes at room temperature. The reaction is started by bringing the temperature to 37° C. and adding 16 μl substrate. Total reaction volume is 50 μl.
In the Tables 8, 9 and 10, A≦0.05 μM; 0.05 μM<B≦0.1 μM; 0.1 μM<C≦1 μM; and 1 μM<D≦10 μM.

[2] = tested on: HDAC activity in primary mouse cortical cultures; assay: Whole-Cell Histone Deacetylase (HDAC) Inhibition Assay in Primary Mouse Cortical Cultures; assay type: cell-based; conditions: whole-cell (WC), mouse cortical neurons, read-out: HDAC Inhibition (IC50 μM) WC mouse cortical neurons
Protocol: Primary neocortical cultures are established through the dissection of the neocortex from E17 embryos harvested from time-pregnant Balb/C mice. Following dissection, the neocortical tissue specimens undergo digestion by incubation at 37° C. for 10 minutes in dissection medium (1×HBSS/10 mM HEPES/1 mM Sodium Pyruvate) supplemented with (0.25%) Trypsin and (0.1%) DNase I. Digested tissue is washed and resuspended in plating medium (NeuroBasal/10% HS/0.5 mM L-Glutamine (Invitrogen Corporation)) for trituration. Additional plating medium is added, and the contents are passed over a 70 um cell-strainer. The cell-density is quantified using a hemacytometer, and dilutions are made to allow for the plating of 50000 cells/well/100 uL in 96-well PDL-coated plates. Plates are incubated for 4-5 hours in 37° C./5% CO2-incubator, after which time the entire volume is exchanged to feeding medium (NeuroBasal/2% B-27 Serum-free supplement/0.5 mM L-Glutamine/1% Penicillin-Streptomycin (Invitrogen Corporation)). The cultures undergo two 50% fresh feeding medium exchanges at 3 days in vitro (DIV3), and again at DIV7.
Compounds for testing are resuspended in dimethyl sulphoxide (DMSO), and further diluted in DMSO for a ten-point dose-response curve, with appropriate controls. Each master plate is assayed in triplicate. […] Three DIV9 culture plates are leveled to 50 uL/well, onto which each has overlaid 50 uL/well of the diluted daughter plate. The plates are returned to the 37° C./5% CO2-incubator for 16-18 hours.
The next step of the assay involves the exposure of a HDAC colorimetric substrate, comprising an acetylated lysine side chain, to the compound-treated neuronal cultures. Based on the ability of the compound to inhibit HDAC activity in the neuronal cultures, the substrate is deacetylated by HDACs, and subsequently sensitized. […] Compound-incubated culture plates are again leveled to 50 uL/well and 2 uL/well of 7.5 mM BOC-Lys (Ac)-AMC substrate is added and thoroughly mixed. Plates are returned to the 37° C./5% CO2-incubator for 1 hour.
The final addition to the culture plates entails treatment with a Fluor de Lys™-based developer (BIOMOL Research Laboratories, Inc.) to produce a fluorophore, which is analyzed using a spectrophotometer. The developer solution (1×Fluor de Lys™/1% NP-40/1 uM TSA in HDAC Buffer Solution) is prepared, and 50 uL/well is added to each of the wells of the culture plates. […] The plates are returned to the 37° C./5% CO2-incubator for 10-15 minutes, after which time, they are removed and set in the dark at room temperature for 5-10 minutes.
Primary neocortical cultures were established through the dissection of the neocortex from E17 embryos harvested from time-pregnant Balb/C mice. Following dissection, the neocortical tissue specimens underwent digestion by incubation at 37° C. for 10 minutes in dissection medium (1×HBSS/10 mM HEPES/1 mM Sodium Pyruvate) supplemented with (0.25%) Trypsin and (0.1%) DNase I. Digested tissue was washed and resuspended in plating medium (NeuroBasal/10% HS/0.5 mM L-Glutamine (Invitrogen Corporation)) for trituration. Additional plating medium was added, and the contents passed over a 70 um cell-strainer. The cell-density was quantified using a hemacytometer, and dilutions made to allow for the plating of 50000 cells/well/100 uL in 96-well PDL-coated plates. Plates were incubated for 4-5 hours in 37° C./5% CO2-incubator, after which time the entire volume was exchanged to feeding medium (NeuroBasal/2% B-27 Serum-free supplement/0.5 mM L-Glutamine/l % Penicillin-Streptomycin (Invitrogen Corporation)). The cultures underwent two 50% fresh feeding medium exchanges at 3 days in vitro (DIV3), and again at DIV7.
Compounds for testing were resuspended in dimethyl sulphoxide (DMSO), and further diluted in DMSO for a ten-point dose-response curve, with appropriate controls. Each master plate was assayed in triplicate.

Row | Structure (SMILES) | IC50 ([1]; Table 9) [µM] | IC50 ([2]; Table 9) [µM] | IC50 ([1]; Table 10) [µM] | IC50 ([2]; Table 10) [µM] | other results
1 | CN(C)Cc1cccc(N2C[C@@H]3C[C@H]2CN3c2ncc(C(=O)NO)cn2)c1 [2-((1S,4S)-5-(3-((dimethylamino)methyl)phenyl)-2,5-diazabicyclo[2.2.1]heptan-2-yl)-N-hydroxypyrimidine-5-carboxamide] | < 0.05 | < 1 | – | – | –
2 | O=C(NO)c1cnc(N2C[C@@H]3C[C@H]2CN3c2cccc(OC(F)F)c2)nc1 [2-((1S,4S)-5-(3-(difluoromethoxy)phenyl)-2,5-diazabicyclo[2.2.1]heptan-2-yl)-N-hydroxypyrimidine-5-carboxamide] | < 0.05 | < 1 | – | – | –
3 | CN(C)C(=O)c1cccc(N2C[C@@H]3C[C@H]2CN3c2ncc(C(=O)NO)cn2)c1 [2-((1S,4S)-5-(3-(dimethylcarbamoyl)phenyl)-2,5-diazabicyclo[2.2.1]heptan-2-yl)-N-hydroxypyrimidine-5-carboxamide] | < 0.05 | < 1 | – | – | –
4 | O=C(NO)c1cnc(N2C[C@@H]3C[C@H]2CN3c2cccc(F)c2)nc1 [2-((1S,4S)-5-(3-fluorophenyl)-2,5-diazabicyclo[2.2.1]heptan-2-yl)-N-hydroxypyrimidine-5-carboxamide] | < 0.05 | < 1 | – | – | –
5 | O=C(NO)c1cnc(N2C[C@@H]3C[C@H]2CN3c2ccc(Cl)cc2)nc1 [2-((1S,4S)-5-(4-chlorophenyl)-2,5-diazabicyclo[2.2.1]heptan-2-yl)-N-hydroxypyrimidine-5-carboxamide] | < 0.05 | < 1 | – | – | –
6 | O=C(NO)c1cnc(N2C[C@@H]3C[C@H]2CN3c2ccc(F)cc2)nc1 [2-((1S,4S)-5-(4-fluorophenyl)-2,5-diazabicyclo[2.2.1]heptan-2-yl)-N-hydroxypyrimidine-5-carboxamide] | 0.05 to 0.1 | < 1 | – | – | –
7 | O=C(NO)c1cnc(N2C[C@@H]3C[C@H]2CN3c2cccc3nonc23)nc1 [2-((1S,4S)-5-(benzo[c][1,2,5]oxadiazol-4-yl)-2,5-diazabicyclo[2.2.1]heptan-2-yl)-N-hydroxypyrimidine-5-carboxamide] | < 0.05 | < 1 | – | – | –
8 | O=C(NO)c1cnc(N2C[C@@H]3C[C@H]2CN3c2ccc3nonc3c2)nc1 [2-((1S,4S)-5-(benzo[c][1,2,5]oxadiazol-5-yl)-2,5-diazabicyclo[2.2.1]heptan-2-yl)-N-hydroxypyrimidine-5-carboxamide] | < 0.05 | < 1 | – | – | –
9 | O=C(NO)c1cnc(N2C[C@@H]3C[C@H]2CN3c2ccc3nsnc3c2)nc1 [2-((1S,4S)-5-(benzo[c][1,2,5]thiadiazol-5-yl)-2,5-diazabicyclo[2.2.1]heptan-2-yl)-N-hydroxypyrimidine-5-carboxamide] | < 0.05 | < 1 | – | – | –
10 | O=C(NO)c1cnc(N2C[C@@H]3C[C@H]2CN3c2ccc3c(c2)OCO3)nc1 [2-((1S,4S)-5-(benzo[d][1,3]dioxol-5-yl)-2,5-diazabicyclo[2.2.1]heptan-2-yl)-N-hydroxypyrimidine-5-carboxamide] | < 0.05 | < 1 | – | – | –
11 | O=C(NO)c1cnc(N2C[C@@H]3C[C@H]2CN3c2noc3ccccc23)nc1 [2-((1S,4S)-5-(benzo[d]isoxazol-3-yl)-2,5-diazabicyclo[2.2.1]heptan-2-yl)-N-hydroxypyrimidine-5-carboxamide] | < 0.05 | < 1 | – | – | –
12 | O=C(NO)c1cnc(N2C[C@@H]3C[C@H]2CN3Cc2ccccc2)nc1 [2-((1S,4S)-5-benzyl-2,5-diazabicyclo[2.2.1]heptan-2-yl)-N-hydroxypyrimidine-5-carboxamide] | 0.1 to 1 | 1 to 5 | – | – | –
13 | O=C(NO)c1cnc(OC(c2ccc(F)cc2)c2ccc(F)cc2)nc1 [2-(bis(4-fluorophenyl)methoxy)-N-hydroxypyrimidine-5-carboxamide] | – | – | 0.1 to 1 | > 15 | –
14 | O=C(NO)c1ccc(N2C[C@@H]3C[C@H]2CN3c2cccc(C(F)(F)F)c2)cc1F [2-fluoro-N-hydroxy-4-((1S,4S)-5-(3-(trifluoromethyl)phenyl)-2,5-diazabicyclo[2.2.1]heptan-2-yl)benzamide] | 0.1 to 1 | 5 to 15 | – | – | –
15 | O=C(NO)c1ccc(C2Nc3ccccc3Oc3ccccc32)cc1 (stereo not shown) [4-(10,11-dihydrodibenzo[b,f][1,4]oxazepin-11-yl)-N-hydroxybenzamide] | – | – | – | – | IC50 ([1]; Table 8): < 0.05 µM; IC50 ([2]; Table 8): 1 to 5 µM
16 | N#Cc1cccc(N2C[C@@H]3C[C@H]2CN3c2ccc(C(=O)NO)cc2)c1 [4-((1S,4S)-5-(3-cyanophenyl)-2,5-diazabicyclo[2.2.1]heptan-2-yl)-N-hydroxybenzamide] | 0.1 to 1 | 1 to 5 | – | – | –

Now from value to compound, other results behind:

Row | IC50 ([1]; Table 9) [µM] | IC50 ([2]; Table 9) [µM] | IC50 ([1]; Table 10) [µM] | IC50 ([2]; Table 10) [µM] | Structure (SMILES) | other results
17 | < 0.05 | 1 to 5 | – | – | O=C(NO)c1cnc(N2C[C@@H]3C[C@H]2CN3C(c2ccccc2)c2ccccc2)nc1 [2-((1S,4S)-5-benzhydryl-2,5-diazabicyclo[2.2.1]heptan-2-yl)-N-hydroxypyrimidine-5-carboxamide] | –
18 | < 0.05 | < 1 | – | – | O=C(NO)c1cnc(N2C[C@@H]3C[C@H]2CN3C(=O)c2ccccc2)nc1 [2-((1S,4S)-5-benzoyl-2,5-diazabicyclo[2.2.1]heptan-2-yl)-N-hydroxypyrimidine-5-carboxamide] | –
19 | – | – | < 0.05 | < 1 | O=C(NO)c1cnc(NC(c2ccccc2)c2ccccc2)nc1 [2-(benzhydrylamino)-N-hydroxypyrimidine-5-carboxamide] | –
20 | – | – | 1 to 10 | 5 to 15 | O=C(NO)c1cnc(ON=C(c2ccccc2)c2ccccc2)nc1 [2-(diphenylmethyleneaminooxy)-N-hydroxypyrimidine-5-carboxamide] | –
21 | – | – | 0.1 to 1 | 5 to 15 | O=C(NO)c1ccc(CN2C(=O)c3cccnc3N(C3CC3)c3ccccc32)cc1 [4-((11-cyclopropyl-5-oxo-5H-benzo[b]pyrido[2,3-e][1,4]diazepin-6(11H)-yl)methyl)-N-hydroxybenzamide] | –
22 | – | – | 0.1 to 1 | 1 to 5 | O=C(CCCCCN1C(=O)c2ccccc2N(C2CC2)c2ccccc21)NO [6-(5-cyclopropyl-11-oxo-5H-dibenzo[b,e][1,4]diazepin-10(11H)-yl)-N-hydroxyhexanamide] | –
23 | – | – | < 0.05 | 1 to 5 | O=C(CCCCCN1c2ccccc2CCc2ccccc21)NO [6-(10,11-dihydro-5H-dibenzo[b,f]azepin-5-yl)-N-hydroxyhexanamide] | –
24 | – | – | 0.1 to 1 | 1 to 5 | O=C(CCCCCN1C(=O)c2cccnc2N(C2CC2)c2ccccc21)NO [6-(11-cyclopropyl-5-oxo-5H-benzo[b]pyrido[2,3-e][1,4]diazepin-6(11H)-yl)-N-hydroxyhexanamide] | –
25 | – | – | 0.1 to 1 | 1 to 5 | O=C(CCCCCCN1C(=O)c2ccccc2N(C2CC2)c2ccccc21)NO [7-(5-cyclopropyl-11-oxo-5H-dibenzo[b,e][1,4]diazepin-10(11H)-yl)-N-hydroxyheptanamide] | –
26 | – | – | 0.05 to 0.1 | 1 to 5 | O=C(CCCCCCN1C(=O)c2cccnc2N(C2CC2)c2ccccc21)NO [7-(11-cyclopropyl-5-oxo-5H-benzo[b]pyrido[2,3-e][1,4]diazepin-6(11H)-yl)-N-hydroxyheptanamide] | –

— US20170000749A1, “Methods for Treating Cognitive Disorders Using Inhibitors of Histone Deacetylase” (Forum Pharmaceuticals, Inc., priority 2008, published 2017)
